Test system: mouse cortical cultures
Experiment: RNA-seq differential expression (DESeq) against matched vehicle
Type: cell-based
Design: key to MeanFenamidone Bcl11b / MeanFenamidone Slc12a4 / MeanFenamidone Abca1 / MeanFenamidone Hmox1 / MeanFenamidone Il1rap / MeanFenamidone Cyba / MeanFenamidone Narf / MeanFenamidone Bnip3 / MeanFenamidone Amotl2 / MeanFenamidone Gad2 / MeanFenamidone Vsnl1 / MeanFenamidone Fam178a: DESeq mean of counts over RefSeq exons
Conditions: for MeanFenamidone (DESeq mean normalized counts): Fenamidone, vs matched vehicle
Procedure: Figure 4 Cluster 2 chemicals alter expression of a common set of genes. […] RNA-seq was performed in quadruplicate after treating cortical cultures with fenamidone (10 μM) or pyraclostrobin (0.1 μM) for 24 h (n=3 biological replicates) and compared with matched vehicle controls using DESeq to detect differentially expressed genes, listed in Supplementary Data 4.
Cultures were treated with the non-cytotoxic dose of each chemical, by exchanging half of the original medium with chemicals at 2 × concentration in prewarmed feeding medium, on DIV 7 for 24 h in 12-well plates at a density of 5 × 10^5 cells per well. RNA was isolated using RNeasy plus mini kit (Cat. #74134, Qiagen). […]. Samples were further assessed for quality using either an Agilent Bioanalyzer 2100 or TapeStation 2200 to obtain a RIN. RIN values exceeding 7 were used for sequencing. RNA samples were used to generate and barcode complementary DNA libraries using the TruSeq RNA Library Preparation Kit at the UNC High Throughput Sequencing Facility. Pools of 24 multiplexed samples were sequenced per lane on an Illumina HiSeq 2500 using 50-bp paired-end reads.
RNA-seq reads were filtered using TagDust and aligned to the reference mouse genome (mm9) with TopHat using default parameters. Reads aligning to ribosomal RNA genes were removed. Transcript abundance was estimated by computing Reads per kilobase per million mapped reads (RPKM) using RefSeq gene models aggregated by gene symbol. For differential expression analyses, raw counts over RefSeq exons were used, and then were compared across samples using DESeq[62].

SMILES: CSC1=N[C@@](C)(c2ccccc2)C(=O)N1Nc1ccccc1 [fenamidone]
- log2FoldChange (gene Prss23): 2.578
- MeanFenamidone Ptpn14 (gene Ptpn14, DESeq mean, 4 reps): 536.253
- log2FoldChange Ptpn14 (gene Ptpn14, vs vehicle, 4 reps): 2.06
- MeanFenamidone (gene Ptpro): 128.9
- log2FoldChange (gene Ptpro): -1.349
- MeanFenamidone (gene Rab6b): 1528.43
- log2FoldChange (gene Rab6b): -1.231
- MeanFenamidone Rian (gene Rian, DESeq mean, 4 reps): 479.419
- log2FoldChange Rian (gene Rian, vs vehicle, 4 reps): -1.772
- MeanFenamidone Rimkla (gene Rimkla, DESeq mean, 4 reps): 54.5497
- log2FoldChange Rimkla (gene Rimkla, vs vehicle, 4 reps): -1.586
- MeanFenamidone Rph3a (gene Rph3a, DESeq mean, 4 reps): 62.2069
- log2FoldChange Rph3a (gene Rph3a, vs vehicle, 4 reps): -2.0001
- MeanFenamidone (gene Rsu1): 240.928
- log2FoldChange (gene Rsu1): 1.174
- MeanFenamidone Samd4 (gene Samd4, DESeq mean, 4 reps): 336.652
- log2FoldChange Samd4 (gene Samd4, vs vehicle, 4 reps): 1.621
- MeanFenamidone Scn2a1 (gene Scn2a1, DESeq mean, 4 reps): 402.156
- log2FoldChange Scn2a1 (gene Scn2a1, vs vehicle, 4 reps): -1.491
- MeanFenamidone Sdc1 (gene Sdc1, DESeq mean, 4 reps): 327.963
- log2FoldChange Sdc1 (gene Sdc1, vs vehicle, 4 reps): 1.6746
- MeanFenamidone (gene Sdc3): 1856.44
- log2FoldChange (gene Sdc3): -1.095
- MeanFenamidone Serpine2 (gene Serpine2, DESeq mean, 4 reps): 777.193
- log2FoldChange Serpine2 (gene Serpine2, vs vehicle, 4 reps): 1.421
- MeanFenamidone (DESeq mean normalized counts) (gene Serpinf1, 4 reps): 51.7434
- MeanFenamidone Serpini1 (gene Serpini1, DESeq mean, 4 reps): 255.176
- log2FoldChange Serpini1 (gene Serpini1, vs vehicle, 4 reps): -1.567
- MeanFenamidone (gene Sgpl1): 504.223
- log2FoldChange (gene Sgpl1): 1.381
- MeanFenamidone Shank1 (gene Shank1, DESeq mean, 4 reps): 288.972
- log2FoldChange Shank1 (gene Shank1, vs vehicle, 4 reps): -1.584
- MeanFenamidone (gene Shmt2): 164.927
- log2FoldChange (gene Shmt2): 1.37
- MeanFenamidone Slc3a2 (gene Slc3a2, DESeq mean, 4 reps): 1206
- log2FoldChange Slc3a2 (gene Slc3a2, vs vehicle, 4 reps): 1.496
- MeanFenamidone (gene Slc4a2): 227.842
- log2FoldChange (gene Slc4a2): 1.898
- MeanFenamidone Slc5a3 (gene Slc5a3, DESeq mean, 4 reps): 905.314
- log2FoldChange Slc5a3 (gene Slc5a3, vs vehicle, 4 reps): 1.342
- MeanFenamidone Slc8a3 (gene Slc8a3, DESeq mean, 4 reps): 22.3077
- log2FoldChange Slc8a3 (gene Slc8a3, vs vehicle, 4 reps): -2.167
- MeanFenamidone Slc12a4 (gene Slc12a4, DESeq mean, 4 reps): 353.466
- log2FoldChange Slc12a4 (gene Slc12a4, vs vehicle, 4 reps): 2.575
- MeanFenamidone Slc12a5 (gene Slc12a5, DESeq mean, 4 reps): 198.315
- log2FoldChange Slc12a5 (gene Slc12a5, vs vehicle, 4 reps): -1.614
- MeanFenamidone (gene Slc12a7): 123.511
- log2FoldChange (gene Slc12a7): 2.012
- MeanFenamidone Slc32a1 (gene Slc32a1, DESeq mean, 4 reps): 76.5704
- log2FoldChange Slc32a1 (gene Slc32a1, vs vehicle, 4 reps): -1.6789
- MeanFenamidone (gene Slit2): 473.475
- log2FoldChange (gene Slit2): 1.336
- MeanFenamidone (gene Slitrk3): 59.0221
- log2FoldChange (gene Slitrk3): -1.399
- MeanFenamidone Smpd3 (gene Smpd3, DESeq mean, 4 reps): 450.951
- log2FoldChange Smpd3 (gene Smpd3, vs vehicle, 4 reps): -1.523
- MeanFenamidone (gene Snap91): 577.837
- log2FoldChange (gene Snap91): -1.2276
- MeanFenamidone Snx33 (gene Snx33, DESeq mean, 4 reps): 193.085
- log2FoldChange Snx33 (gene Snx33, vs vehicle, 4 reps): 2.21
- MeanFenamidone (gene Sorl1): 374.526
- log2FoldChange (gene Sorl1): 1.703
- MeanFenamidone Spock3 (gene Spock3, DESeq mean, 4 reps): 49.3806
- log2FoldChange Spock3 (gene Spock3, vs vehicle, 4 reps): -2.6448
- MeanFenamidone Sprn (gene Sprn, DESeq mean, 4 reps): 108.373
- log2FoldChange Sprn (gene Sprn, vs vehicle, 4 reps): -1.675
- MeanFenamidone Srxn1 (gene Srxn1, DESeq mean, 4 reps): 1016.41
- log2FoldChange Srxn1 (gene Srxn1, vs vehicle, 4 reps): 2.241
- MeanFenamidone (gene Ssc5d): 60.5262
- log2FoldChange (gene Ssc5d): 1.812
- MeanFenamidone Ssfa2 (gene Ssfa2, DESeq mean, 4 reps): 339.098
- log2FoldChange Ssfa2 (gene Ssfa2, vs vehicle, 4 reps): 1.684
- MeanFenamidone (gene St8sia1): 138.691
- log2FoldChange (gene St8sia1): -1.185
- MeanFenamidone St8sia3 (gene St8sia3, DESeq mean, 4 reps): 218.799
- log2FoldChange St8sia3 (gene St8sia3, vs vehicle, 4 reps): -1.589
- MeanFenamidone (gene St8sia4): 83.2874
- log2FoldChange (gene St8sia4): -1.239
- MeanFenamidone (gene Sult4a1): 337.631
- log2FoldChange (gene Sult4a1): -1.1579
- MeanFenamidone Sv2b (gene Sv2b, DESeq mean, 4 reps): 206.444
- log2FoldChange Sv2b (gene Sv2b, vs vehicle, 4 reps): -1.8053
- MeanFenamidone (DESeq mean normalized counts) (gene Svil, 4 reps): 63.1892
- MeanFenamidone Syn2 (gene Syn2, DESeq mean, 4 reps): 290.905
- log2FoldChange Syn2 (gene Syn2, vs vehicle, 4 reps): -1.354
- MeanFenamidone Syp (gene Syp, DESeq mean, 4 reps): 891.603
- log2FoldChange Syp (gene Syp, vs vehicle, 4 reps): -1.4647
- MeanFenamidone Syt1 (gene Syt1, DESeq mean, 4 reps): 825.321
- log2FoldChange Syt1 (gene Syt1, vs vehicle, 4 reps): -1.819
- MeanFenamidone Tagln (gene Tagln, DESeq mean, 4 reps): 2032.34
- log2FoldChange Tagln (gene Tagln, vs vehicle, 4 reps): 3.012
- MeanFenamidone Tead1 (gene Tead1, DESeq mean, 4 reps): 925.254
- log2FoldChange Tead1 (gene Tead1, vs vehicle, 4 reps): 2.035
- MeanFenamidone Tgfb2 (gene Tgfb2, DESeq mean, 4 reps): 420.529
- log2FoldChange Tgfb2 (gene Tgfb2, vs vehicle, 4 reps): 1.82
- MeanFenamidone Tgfb3 (gene Tgfb3, DESeq mean, 4 reps): 398.538
- log2FoldChange Tgfb3 (gene Tgfb3, vs vehicle, 4 reps): 2.304
- MeanFenamidone Thbs1 (gene Thbs1, DESeq mean, 4 reps): 3138.32
- log2FoldChange Thbs1 (gene Thbs1, vs vehicle, 4 reps): 2.61
- MeanFenamidone Tln1 (gene Tln1, DESeq mean, 4 reps): 658.354
- log2FoldChange Tln1 (gene Tln1, vs vehicle, 4 reps): 2.579
- MeanFenamidone Tmbim1 (gene Tmbim1, DESeq mean, 4 reps): 170.347
- log2FoldChange Tmbim1 (gene Tmbim1, vs vehicle, 4 reps): 2.378
- MeanFenamidone (gene Tmem181b-ps): 77.9777
- log2FoldChange (gene Tmem181b-ps): -1.325
- MeanFenamidone (gene Tmem229b): 256.203
- log2FoldChange (gene Tmem229b): -1.123
- MeanFenamidone Tnc (gene Tnc, DESeq mean, 4 reps): 998.798
- log2FoldChange Tnc (gene Tnc, vs vehicle, 4 reps): 2.934
- MeanFenamidone Tnfrsf10b (gene Tnfrsf10b, DESeq mean, 4 reps): 126.269
- log2FoldChange Tnfrsf10b (gene Tnfrsf10b, vs vehicle, 4 reps): 2.1709
- MeanFenamidone Tnfrsf12a (gene Tnfrsf12a, DESeq mean, 4 reps): 307.752
- log2FoldChange Tnfrsf12a (gene Tnfrsf12a, vs vehicle, 4 reps): 3.087
- MeanFenamidone (gene Tns1): 238.258
- log2FoldChange (gene Tns1): 2.58
- MeanFenamidone Tpm4 (gene Tpm4, DESeq mean, 4 reps): 930.727
- log2FoldChange Tpm4 (gene Tpm4, vs vehicle, 4 reps): 1.809
- MeanFenamidone Tpp1 (gene Tpp1, DESeq mean, 4 reps): 440.575
- log2FoldChange Tpp1 (gene Tpp1, vs vehicle, 4 reps): 1.842
- MeanFenamidone (gene Tro): 343.733
- log2FoldChange (gene Tro): -1.218
- MeanFenamidone (gene Tspyl4): 870.895
- log2FoldChange (gene Tspyl4): -1.118
- MeanFenamidone Tuba4a (gene Tuba4a, DESeq mean, 4 reps): 131.218
- log2FoldChange Tuba4a (gene Tuba4a, vs vehicle, 4 reps): -1.604
- MeanFenamidone Tubb6 (gene Tubb6, DESeq mean, 4 reps): 522.566
- log2FoldChange Tubb6 (gene Tubb6, vs vehicle, 4 reps): 2.127
- MeanFenamidone Tuft1 (gene Tuft1, DESeq mean, 4 reps): 71.0226
- log2FoldChange Tuft1 (gene Tuft1, vs vehicle, 4 reps): 2.58
- MeanFenamidone Txnrd1 (gene Txnrd1, DESeq mean, 4 reps): 1365.85
- log2FoldChange Txnrd1 (gene Txnrd1, vs vehicle, 4 reps): 1.713
- MeanFenamidone Uap1l1 (gene Uap1l1, DESeq mean, 4 reps): 115.372
- log2FoldChange Uap1l1 (gene Uap1l1, vs vehicle, 4 reps): 2.463
- MeanFenamidone (gene Vash1): 501.714
- log2FoldChange (gene Vash1): -1.142
- MeanFenamidone Vasn (gene Vasn, DESeq mean, 4 reps): 270.313
- log2FoldChange Vasn (gene Vasn, vs vehicle, 4 reps): 2.194
- MeanFenamidone Vcl (gene Vcl, DESeq mean, 4 reps): 498.388
- log2FoldChange Vcl (gene Vcl, vs vehicle, 4 reps): 2.095
- MeanFenamidone Vgll3 (gene Vgll3, DESeq mean, 4 reps): 231.289
- log2FoldChange Vgll3 (gene Vgll3, vs vehicle, 4 reps): 2.348
- MeanFenamidone (gene Vim): 6511.9
- log2FoldChange (gene Vim): 1.994
- MeanFenamidone Vsnl1 (gene Vsnl1, DESeq mean, 4 reps): 216.784
- log2FoldChange Vsnl1 (gene Vsnl1, vs vehicle, 4 reps): -1.6854
- MeanFenamidone Wls (gene Wls, DESeq mean, 4 reps): 676.758
- log2FoldChange Wls (gene Wls, vs vehicle, 4 reps): 1.397
- MeanFenamidone Wnk1 (gene Wnk1, DESeq mean, 4 reps): 1955.12
- log2FoldChange Wnk1 (gene Wnk1, vs vehicle, 4 reps): 1.378
- MeanFenamidone Xkr4 (gene Xkr4, DESeq mean, 4 reps): 97.5483
- log2FoldChange Xkr4 (gene Xkr4, vs vehicle, 4 reps): -1.595
- MeanFenamidone (gene Zak): 216.098
- log2FoldChange (gene Zak): 1.697
- MeanFenamidone (gene Zbtb7b): 137.122
- log2FoldChange (gene Zbtb7b): 2.108
- MeanFenamidone Zfp36l2 (gene Zfp36l2, DESeq mean, 4 reps): 339.831
- log2FoldChange Zfp36l2 (gene Zfp36l2, vs vehicle, 4 reps): 2.067
